{"source": "patent US20250099481A1", "about": "“BCL-2 INHIBITORS” (Newave Pharmaceutical Inc., priority 2022, published 2025)", "origin": "cited, not measured here", "key": {"Bcl-w": {"molecular_target": "T1, Bcl-w (Homo sapiens, UniProt Q92843)", "T1 sequence (Q92843 1-193)": "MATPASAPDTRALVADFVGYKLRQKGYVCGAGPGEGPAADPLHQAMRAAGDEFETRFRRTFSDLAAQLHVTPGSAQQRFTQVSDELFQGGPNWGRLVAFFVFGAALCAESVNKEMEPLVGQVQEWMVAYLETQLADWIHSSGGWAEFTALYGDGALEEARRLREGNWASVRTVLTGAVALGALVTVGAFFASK"}, "[1]": {"tested_on": "xenograft models of small-cell lung cancer and acute lymphoblastic leukemia", "conditions": "oral administration alone"}, "H345 xenograft": {"tested_on": "H345 xenograft", "conditions": "100 mg/kg/day, H345 xenograft model"}, "[2]": {"conditions": "in vivo"}, "[3]": {"tested_on": "CLL who have 17p deletion", "conditions": "Human Phase I and II data, CLL with 17p deletion"}, "CLL": {"tested_on": "CLL", "conditions": "read-out: average EC50, apoptosis"}, "[4]": {"tested_on": "DoHH2, Granta-519 xenografts", "conditions": "single agent or in combination with Bendamustine and other agents"}, "RS4;11 xenografts": {"tested_on": "RS4;11 xenografts", "conditions": "single dose of 100 mg/kg"}}}
{"molecule": "CC1(C)CCC(c2ccc(Cl)cc2)=C(CN2CCN(c3ccc(C(=O)NS(=O)(=O)c4ccc(N[C@H](CCN5CCOCC5)CSc5ccccc5)c(S(=O)(=O)C(F)(F)F)c4)cc3)CC2)C1", "note": "[ABT-263]", "values": [{"measurement": "Ki", "setting": "Bcl-w", "result": 1, "unit": "nM"}, {"measurement": "tumor response", "setting": "[1]", "result": "complete tumor regressions"}, {"measurement": "TGI", "setting": "H345 xenograft", "result": 80, "unit": "%"}, {"measurement": "treated tumors indicating at least a 50% reduction in tumor volume", "setting": "H345 xenograft", "result": 20, "unit": "%"}, {"measurement": "number of circulating platelets", "setting": "circulating platelets; clinical trial, inhibition of BCL-XL", "result": "rapid, concentration-dependent decrease in the number of circulating platelets"}, {"measurement": "dose-limiting toxicity", "setting": "circulating platelets; single-agent treatment in patients", "result": "thrombocytopenia is the dose-limiting toxicity"}, {"measurement": "IC50", "setting": "SCLC H146 cell line", "result": 110, "unit": "nM"}]}
{"molecule": "CN(C)CC[C@H](CSc1ccccc1)Nc1ccc(S(=O)(=O)NC(=O)c2ccc(N3CCN(Cc4ccccc4-c4ccc(Cl)cc4)CC3)cc2)cc1[N+](=O)[O-]", "note": "[ABT-737]", "values": [{"measurement": "oral bioavailability", "setting": "[2]", "result": "not orally bioavailable"}, {"measurement": "aqueous solubility", "result": "low aqueous solubility"}, {"measurement": "efficacy in animal models", "setting": "established tumors", "result": "improves survival, causes regression of established tumors, and produces cures in a high percentage of the mice"}]}
{"molecule": "ABT-199", "values": [{"measurement": "clinical efficacy", "setting": "[3]", "result": "highly efficacious"}, {"measurement": "EC50", "setting": "CLL", "result": 3, "unit": "nM"}, {"measurement": "EC50", "setting": "RS4;11 cells", "result": 8, "unit": "nM"}, {"measurement": "apoptosis induction", "setting": "RS4;11 cells; cytochrome c release, caspase activation, accumulation of sub-G0/G1 DNA", "result": "induces a rapid apoptosis"}, {"measurement": "xenograft growth", "setting": "[4]", "result": "inhibits xenograft growth"}, {"measurement": "maximal tumor growth inhibition", "setting": "RS4;11 xenografts", "result": 95, "unit": "%"}, {"measurement": "tumor growth delay", "setting": "RS4;11 xenografts", "result": 152, "unit": "%"}]}
